Data on one compound can be found in patent US12115155B2, “Solid dosage form of a nicotine concentration” (Fertin Pharma A/S, priority 2017, dated 2024).

The conditions of this data set: nicotine concentration increased from 100 microgram/mL to 14,000 microgram/mL.

As for `CN1CCCC1c1cccnc1` (stereo not shown) [nicotine], the “change of permeability of nicotine across the buccal mucosa” value is “decrease of about a factor of two”.
